Results: US20240067639A1, “SMALL MOLECULES THAT TARGET THE RNA THAT CAUSES ALS” (EXPANSION THERAPEUTICS, INC., priority 2020, published 2024)
Where two headings read alike, the source gives them in different places.

Tests used:
[1] = target: Biotin-labeled RNA (target RNA); test: BLI affinity measurement (ForteBio Octet RED384); type: binding; settings: Table G
[2] = tested on: RAN translation of (G4C2)66-No ATG-GFP in HEK293T cells; test: Cell-based assay of RAN translation inhibition (GFP/mCherry reporter); settings: Homo sapiens, HEK-293T, read-out: RANT IC50
[3] = tested on: cultured cells and induced neurons; settings: cited from earlier work
r(G4C2)^exp = settings: background statement; cited from earlier work

Row | Structure (SMILES) | Kd [1] | IC50 ([2]; Table G, HEK293T) | IC50 [2] | inhibition of RAN translation and foci formation [3] | binding to r(G4C2)exp (r(G4C2)^exp)
1 | Cc1c2ccncc2cc2c3cc(Oc4cccnc4)ccc3n(C)c12 [Compound 311, 5,6-dimethyl-9-(pyridin-3-yloxy)-6H-pyrido[4,3-b]carbazole] | 2.3 µM |  | 20 µM |  | 
2 | Cc1c2ccncc2cc2c3cc(OC[C@H](C)NC(N)=O)ccc3n(C)c12 [Compound 273, (S)-1-(1-((5,6-dimethyl-6H-pyrido[4,3-b]carbazol-9-yl)oxy)propan-2-yl)urea] | 0.14 µM | 0.39 µM |  |  | 
3 | CCCN[C@@H](C)COc1ccc2c(c1)c1cc3cnccc3c(C)c1n2C [Compound 277, (2S)-1-(5,6-dimethylpyrido[4,3-b]carbazol-9-yl)oxy-N-propyl-propan-2-amine] | 0.02 µM |  | 1.5 µM |  | 
4 | Cc1c2ccncc2cc2c3ccccc3n(CCN(C)C)c12 [Compound 312, N,N-dimethyl-2-(5-methyl-6H-pyrido[4,3-b]carbazol-6-yl)ethanamine] | 1.3 µM |  | 7.4 µM |  | 
5 | Cc1c2cc[n+](CCN3CCCCC3)cc2c(C)c2c1[nH]c1ccc(O)cc12 [Compound 1a] |  |  |  | inhibits RAN translation and foci formation | binds
6 | Cc1c2ccncc2cc2c3ccccc3n(CCN3CCOCC3)c12 [Compound 319, 4-(2-(5-methyl-6H-pyrido[4,3-b]carbazol-6-yl)ethyl)morpholine] | 7.8 µM |  | 12 µM |  | 
7 | CC(=O)N[C@@H](C)COc1ccc2c(c1)c1cc3cnccc3c(C)c1n2C [Compound 272, (S)—N-(1-((5,6-dimethyl-6H-pyrido[4,3-b]carbazol-9-yl)oxy)propan-2-yl)acetamide] | 7.7 µM | 2 µM |  |  | 
8 | Cc1c2ccncc2cc2c3cc(OCC(N)=O)cc(F)c3n(C)c12 [Compound 264, 2-(7-fluoro-5,6-dimethyl-pyrido[4,3-b]carbazol-9-yl)oxyacetamide] | 0.18 µM | > 100 µM |  |  | 
9 | Cc1c2ccncc2cc2c3cc(OCC[C@@H](C)N)ccc3n(C)c12 [Compound 267, (R)-4-((5,6-dimethyl-6H-pyrido[4,3-b]carbazol-9-yl)oxy)butan-2-amine] | 8 µM | > 21 µM |  |  | 
10 | Cc1c2ccncc2cc2c3ccccc3n(CCN3CCCCC3)c12 [Compound 318, 5-methyl-6-(2-(piperidin-1-yl)ethyl)-6H-pyrido[4,3-b]carbazole] | 6 µM |  | 16 µM |  | 
11 | COCCN[C@@H](C)COc1ccc2c(c1)c1cc3cnccc3c(C)c1n2C [Compound 278, (2S)-1-(5,6-dimethylpyrido[4,3-b]carbazol-9-yl)oxy-N-(2-methoxyethyl)propan-2-amine] | 0.083 µM | 21 µM |  |  | 
12 | CCN[C@@H](C)COc1ccc2c(c1)c1cc3cnccc3c(C)c1n2C [Compound 275, (2S)-1-(5,6-dimethylpyrido[4,3-b]carbazol-9-yl)oxy-N-ethyl-propan-2-amine] | 0.062 µM | 20 µM |  |  | 

Continued, in another order:

Row | Kd [1] | Structure (SMILES) | IC50 ([2]; Table G, HEK293T) | IC50 [2] | inhibition of RAN translation and foci formation [3] | binding to r(G4C2)exp (r(G4C2)^exp)
13 | 0.71 µM | CNCCOc1ccc2c(c1)c1cc3cnccc3c(C)c1n2C [Compound 321, 2-((5,6-dimethyl-6H-pyrido[4,3-b]carbazol-9-yl)oxy)-N-methylethanamine] | 3.5 µM |  |  | 
14 | 0.35 µM | Cc1c2ccncc2cc2c3cc(C(=O)NC[C@H](C)N(C)C)ccc3n(C)c12 [Compound 300, (S)—N-(2-(dimethylamino)propyl)-5,6-dimethyl-6H-pyrido[4,3-b]carbazole-9-carboxamide] | 8.6 µM |  |  | 
15 | > 20 µM | Cc1c2ccnc(C(=O)NCC(N)=O)c2cc2c3ccccc3n(C)c12 [Compound 290, N-(2-amino-2-oxoethyl)-5,6-dimethyl-6H-pyrido[4,3-b]carbazole-1-carboxamide] | 8.3 µM |  |  | 
16 | 0.24 µM | COC(C)(C)CNC(=O)c1ccc2c(c1)c1cc3cnccc3c(C)c1n2C [Compound 299, N-(2-methoxy-2-methylpropyl)-5,6-dimethyl-6H-pyrido[4,3-b]carbazole-9-carboxamide] | 3.8 µM |  |  | 
17 | 0.88 µM | Cc1c2ccncc2cc2c3cc(C(=O)NC[C@H](C)N)ccc3n(C)c12 [Compound 280, (S)—N-(2-aminopropyl)-5,6-dimethyl-6H-pyrido[4,3-b]carbazole-9-carboxamide] | 35 µM |  |  | 
18 | 0.3 µM | Cc1c2ccncc2cc2c3cc(C(=O)NC[C@@H](C)N(C)C)ccc3n(C)c12 [Compound 294, N-[(2R)-2-(dimethylamino)propyl]-5,6-dimethyl-pyrido[4,3-b]carbazole-9-carboxamide] | 13 µM |  |  | 
19 | 11 µM | Cc1c2ccnc(C(=O)NCCN(C)C)c2cc2c3cc(F)ccc3n(C)c12 [Compound 315, N-(2-(dimethylamino)ethyl)-9-fluoro-5,6-dimethyl-6H-pyrido[4,3-b]carbazole-1-carboxamide] | > 100 µM |  |  | 
20 | 2.7 µM | Cc1c2ccncc2cc2c3cc(C(=O)N[C@@H](C)C(N)=O)ccc3n(C)c12 [Compound 297, (S)—N-(1-amino-1-oxopropan-2-yl)-5,6-dimethyl-6H-pyrido[4,3-b]carbazole-9-carboxamide] | 2.9 µM |  |  | 
21 | 0.46 µM | Cc1c2ccncc2cc2c3cc(C(=O)N[C@@H](C)CN)ccc3n(C)c12 [Compound 281, (S)—N-(1-aminopropan-2-yl)-5,6-dimethyl-6H-pyrido[4,3-b]carbazole-9-carboxamide] | 17 µM |  |  | 
22 | 0.35 µM | Cc1c2ccncc2cc2c3cc(C(=O)N[C@@H](C)CN(C)C)ccc3n(C)c12 [Compound 295, N-[(1S)-2-(dimethylamino)-1-methyl-ethyl]-5,6-dimethyl-pyrido[4,3-b]carbazole-9-carboxamide] | 41 µM |  |  | 
23 | 6.6 µM | Cc1c2ccncc2cc2c3cc(C(=O)N[C@H](C)C(N)=O)ccc3n(C)c12 [Compound 298, (R)—N-(1-amino-1-oxopropan-2-yl)-5,6-dimethyl-6H-pyrido[4,3-b]carbazole-9-carboxamide] | 1.4 µM |  |  | 
24 | 1.4 µM | Cc1c2ccnc(C(=O)NCCN)c2cc2c3cc(F)c(F)cc3n(C)c12 [Compound 309, N-(2-aminoethyl)-8,9-difluoro-5,6-dimethyl-6H-pyrido[4,3-b]carbazole-1-carboxamide] | 41 µM |  |  | 
25 | 8.2 µM | COCC(C)(C)NC(=O)c1ccc2c(c1)c1cc3cnccc3c(C)c1n2C [Compound 302, N-(1-methoxy-2-methylpropan-2-yl)-5,6-dimethyl-6H-pyrido[4,3-b]carbazole-9-carb-oxamide] | 9.1 µM |  |  | 
26 | 0.18 µM | Cc1c2ccncc2cc2c3cc(Oc4ccnc(N)c4)ccc3n(C)c12 [Compound 303, 4-((5,6-dimethyl-6H-pyrido[4,3-b]carbazol-9-yl)oxy)pyridin-2-amine] | > 100 µM |  |  | 
27 | 0.35 µM | Cc1c2ccncc2cc2c3cc(C(=O)NC[C@@H](C)N)ccc3n(C)c12 [Compound 284, (R)—N-(2-aminopropyl)-5,6-dimethyl-6H-pyrido[4,3-b]carbazole-9-carboxamide] | 1.8 µM |  |  | 
28 | 0.56 µM | Cc1c2ccnc(C(=O)NCCN)c2cc2c3cc(F)ccc3n(C)c12 [Compound 308, N-(2-aminoethyl)-9-fluoro-5,6-dimethyl-6H-pyrido[4,3-b]carbazole-1-carboxamide] | > 100 µM |  |  | 
29 | 1.4 µM | Cc1c2ccncc2cc2c3cc(Oc4cccc(N)n4)ccc3n(C)c12 [Compound 304, 6-((5,6-dimethyl-6H-pyrido[4,3-b]carbazol-9-yl)oxy)pyridin-2-amine] | 5.9 µM |  |  | 
